Data on two compounds can be found in US7705016B2, “Regulation of food intake by modulation of long-chain fatty acyl-CoA levels in the hypothalamus” (Albert Einstein College of Medicine of Yeshiva University, priority 2003, dated 2010).

In this data set the target is T1, hypothalamic CPT1 (Rattus norvegicus, UniProt P32198).
T1 sequence (P32198 1-773): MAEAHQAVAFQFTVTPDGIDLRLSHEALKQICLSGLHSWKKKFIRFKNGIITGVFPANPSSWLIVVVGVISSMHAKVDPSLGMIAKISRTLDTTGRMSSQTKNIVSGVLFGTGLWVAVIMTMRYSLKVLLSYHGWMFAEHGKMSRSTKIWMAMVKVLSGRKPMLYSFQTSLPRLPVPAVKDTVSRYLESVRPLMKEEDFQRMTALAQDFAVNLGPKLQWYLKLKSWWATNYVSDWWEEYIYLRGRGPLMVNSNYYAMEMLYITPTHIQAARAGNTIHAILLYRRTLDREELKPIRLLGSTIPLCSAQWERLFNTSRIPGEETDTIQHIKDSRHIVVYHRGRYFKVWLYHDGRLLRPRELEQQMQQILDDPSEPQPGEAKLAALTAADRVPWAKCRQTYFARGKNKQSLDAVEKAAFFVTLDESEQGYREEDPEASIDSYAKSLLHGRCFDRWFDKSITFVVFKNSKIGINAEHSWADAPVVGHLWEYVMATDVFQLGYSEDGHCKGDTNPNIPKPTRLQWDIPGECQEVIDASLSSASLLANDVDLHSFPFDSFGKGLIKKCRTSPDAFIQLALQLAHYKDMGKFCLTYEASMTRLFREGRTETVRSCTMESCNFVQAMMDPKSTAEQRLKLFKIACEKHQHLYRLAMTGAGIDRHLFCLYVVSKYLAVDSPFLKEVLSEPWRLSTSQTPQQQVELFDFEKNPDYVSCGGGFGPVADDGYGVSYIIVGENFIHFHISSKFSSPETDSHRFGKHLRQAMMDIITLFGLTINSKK
Description: ICV infusion with pancreatic-insulin clamp, glucose kinetics (Example 1). Format: in vivo. Also on record: CPT1 activity was measured in the particulate fraction of protein extracts from animals treated with ICV control injections; from tissue; host or cells: hypothalamus (arcuate nucleus) of male Sprague-Dawley rats, in vivo or ex vivo; Insulin (iU/ml): unit not given here. As to conditions: for Food Intake: measured prior to acute ICV infusion, except CPT1L-Ribo group (3 days after ICV); for decrease in glucose production (GP): basal and equal insulin levels (~20 μU/ml), ICV; for glucose production (GP) during pancreatic clamp vs ICV vehicle controls: ~basal insulin concentrations, p<0.01. As for the experimental part:
Hypothalamic inhibition of CPT1 inhibits glucose production. Experiments were also designed to examine the effect of central inhibition of CPT-1 on whole body insulin action (FIG. 4a,b). Insulin action was assessed by a combination of ICV infusions with systemic pancreatic-insulin clamp studies (FIG. 4b). In these studies, the daily food intake was matched in the rats receiving ICV vector and ICV CPT1L-Ribo (Table 1). All rats also received an intra-arterial infusion of [3-^3H]-glucose for the last 4 hr of ICV infusion and a pancreatic/insulin clamp (insulin 1 mU/kg.min; somatostatin 3 μg/kg/min) during the last 2 hr of the study (Obici et al., 2002a; Obici et al., 2001). As expected in the presence of ˜basal circulating insulin levels (clamp procedure; Table 1), the rate of glucose infusion (GIR) required to maintain euglycemia was marginal in ICV control studies (vector-ST1340- or vehicle-infused animals; ˜0.8 mg/kg/min). By contrast, following ICV infusion of inhibitors of CPT-1 expression or activity glucose had to be infused at the rate of ˜5 mg/kg/min in order to prevent hypoglycemia. Thus, central inhibition of CPT-1 activity in the presence of fixed and basal insulin concentrations stimulates insulin action on glucose homeostasis.
Animal preparation for in vivo experiments. We studied ninety-three 10-week old male Sprague-Dawley rats (Charles River Breeding Laboratories, Wilmington, Mass.). Rats were housed in individual cages and subjected to a standard light-dark cycle. Three weeks prior to the in vivo studies, we placed a chronic catheter in the third cerebral ventricle by stereotaxic surgery (Obici et al., 2002a; Obici et al., 2001; Liu et al., 1998). One week before the pancreatic-insulin clamp protocols, we placed additional catheters in the right internal jugular and left carotid artery (Obici et al., 2001; Liu et al., 1998). All ICV solutions were dissolved in artificial cerebral spinal fluid (aCSF). Food intake was monitored daily.
Measurements of in vivo glucose kinetics and pancreatic-insulin clamp procedure. The infusion studies lasted a total of 360 min (FIG. 3a). Briefly, at t=0 min a primed-continuous ICV infusion of either CPT1 inhibitors or control solution was initiated and maintained for the remainder of the study. 2-tetradecylglydate (TDGA, a gift from Dr. Manuel Guzman) was dissolved in DMSO, diluted into aCSF (Harvard Apparatus) and infused ICV at a rate of 50 pmoles/hr. […] Prior to the pancreatic-insulin clamp studies, rats receiving ICV injection of either CPT1L-Ribo or vector control three days prior to the clamp procedure were randomized into two pair-fed experimental groups. A primed-continuous infusion of HPLC-purified [3-^3H]-glucose (New England Nuclear, Boston, Mass.; 40 μCi bolus, 0.4 μCi/min) was started at t=120 min and continued for the duration of the study (Obici et al., 2002a; Obici et al., 2001; Liu et al., 1998). Finally, a pancreatic-insulin clamp (Obici et al., 2002a; Obici et al., 2001; Liu et al., 1998) was initiated at t=240 min and lasted for 2 hours. This procedure involved the infusion of somatostatin (3 μg/kg/min), insulin (1 mU/kg/min), and glucose as needed to prevent hypoglycemia, or antibodies against C peptide (Linco) and Melanocortin Receptor type 2 (Chemicon). The rate of insulin infusion was designed to replace normal basal levels in postabsorptive rats.
Radioactivity of [^3H]glucose in plasma was measured from supernatants of Ba(OH)2 and ZnSO4 precipitates after evaporation to dryness for the removal of tritiated water (Somogyi pellet). The specific activity of tritiated water in plasma (Somogyi filtrate) was determined from the total counts of the protein-free supernatant before and after evaporation to dryness. Under steady state conditions for plasma glucose concentration, the rate of glucose disappearance (Rd) equals the rate of glucose appearance (Ra). […]

For the compound `CCCCCCCCCCCCCCNC(=O)N[C@H](CC(=O)[O-])C[N+](C)(C)C` [ST1326, (R)-N-(tetradecylcarbamoyl)-aminocarnitine], the “decrease in glucose production (GP)” value worked out at 44±7% and the “glucose production (GP) during pancreatic clamp vs ICV vehicle controls” value was “markedly inhibited GP”. Further, for the setting “Basal”, the “Body wt.” value came out at 302 ± 4 g, the “FFA” value was 0.5 ± 0.1 mM, the “Glucose” value came out at 8.1 ± 0.7 mM and the “Insulin” value is 1.4 ± 0.2 ng/mL. In addition, for the setting “Basal”, the “Leptin” value was found to be 0.9 ± 0.1 ng/mL and the “Food Intake” value is 21 ± 2 g. In addition, for the setting “Clamp, steady-state”, the “FFA” value stood at 0.4 ± 0.1 mM, the “Glucose” value stood at 8.1 ± 0.8 mM and the “Insulin (iU/ml)” value was 21 ± 2.

With “CPT1L-Ribo: plasmid (pTarget, CMV promoter) expressing a hammerhead ribozyme that specifically cleaves rat CPT1L mRNA, complexed to PEI for ICV injection (DNA CUGUACCAAAGAGCUGUAGAGUCCGUGAGGACGAAACGCCGCUCACAAUG)”, the “decrease in glucose production (GP)” value is 30±3% and the “glucose production (GP) during pancreatic clamp vs ICV vehicle controls” value is on record as “markedly inhibited GP”. Also, where the note is “Basal”, the “Body wt.” value worked out at 277 ± 8 g, the “FFA” value stood at 0.5 ± 0.1 mM, the “Glucose” value amounted to 8.2 ± 0.6 mM and the “Food Intake” value amounted to 14 ± 2 g. In addition, under “Clamp, steady-state”, the “FFA” value is 0.4 ± 0.1 mM, the “Glucose” value amounted to 8.1 ± 0.5 mM and the “Insulin (iU/ml)” value is 21 ± 2.
